Results as given in a compilation of properties of binary mixtures (doi:10.1016/j.molliq.2017.07.014).

Test: xn = mol fraction of the nth substance listed
Conditions: 101 kPa

CCCC[P+](C)(CCCC)CCCC.COS(=O)(=O)[O-] + CN1CCCC1=O
Conditions | speed of sound, 308.15 K [m/s] | speed of sound, 313.15 K [m/s] | speed of sound, 318.15 K [m/s] | speed of sound, 323.15 K [m/s] | viscosity, 308.15 K [mPa·s] | viscosity, 313.15 K [mPa·s] | viscosity, 318.15 K [mPa·s] | viscosity, 323.15 K [mPa·s]
x1 = 0.056 | – | – | 1511 | 1506 | – | – | 1.1 | 1.11
x1 = 0.0914 | – | 1536 | 1518 | – | – | 2.21 | 2.5 | –
x1 = 0.1311 | – | 1539 | 1522 | 1517 | – | 3.2 | 4.5 | 3.8
x1 = 0.1773 | – | – | 1523 | 1518 | – | – | 6.4 | 5.7
x1 = 0.2318 | – | 1542 | – | 1518 | – | 6.8 | – | 10.1
x1 = 0.2971 | – | 1539 | 1521 | 1515 | – | 12.1 | 10.2 | 11.1
x1 = 0.3764 | – | 1535 | 1518 | 1512 | – | 15.2 | 12.1 | 13.1
x1 = 0.4752 | – | 1531 | 1515 | 1508 | – | 17.7 | 12.3 | 13.2
x1 = 0.6014 | – | 1526 | 1511 | – | – | 45 | 32 | –
x1 = 0.7129 | – | 1522 | – | 1499 | – | 95 | – | 59
x1 = 0.8086 | – | 1517 | – | 1495 | 192 | 144 | – | 88
x1 = 0.8515 | 1524 | 1515 | 1502 | 1491 | 221 | 166 | 128 | 103
x1 = 0.9022 | 1522 | 1509 | 1498 | 1488 | 245 | 186 | 144 | 116
x1 = 0.9468 | 1519 | 1507 | 1495 | 1484 | 270 | 201 | 159 | 124
x1 = 1 | 1514 | 1499 | 1486 | 1472 | 290 | 217 | 169 | 133
